Assay results from patent publication US11780893B2, “Kv1.3 blockers” (Zealand Pharma A/S, priority 2019, dated 2023).
Bridge positions count the residues as written; N and C are the ends. Square brackets hold non-standard residues; d marks the D form. Peptide text beside a SMILES is read from it. Nle = CCCC[C@H](N)C(=O)O

Biological target: T1, human Kv1.3 voltage-gated K+ channel (Homo sapiens, UniProt P22001)
T1 construct: host or cells: CHO-DUKX
Assay: cell-based
Settings: inhibition of thallium flux, CHO-DUKX cells with human Kv1.3; read-out: IC50

T1 sequence (P22001 whole entry): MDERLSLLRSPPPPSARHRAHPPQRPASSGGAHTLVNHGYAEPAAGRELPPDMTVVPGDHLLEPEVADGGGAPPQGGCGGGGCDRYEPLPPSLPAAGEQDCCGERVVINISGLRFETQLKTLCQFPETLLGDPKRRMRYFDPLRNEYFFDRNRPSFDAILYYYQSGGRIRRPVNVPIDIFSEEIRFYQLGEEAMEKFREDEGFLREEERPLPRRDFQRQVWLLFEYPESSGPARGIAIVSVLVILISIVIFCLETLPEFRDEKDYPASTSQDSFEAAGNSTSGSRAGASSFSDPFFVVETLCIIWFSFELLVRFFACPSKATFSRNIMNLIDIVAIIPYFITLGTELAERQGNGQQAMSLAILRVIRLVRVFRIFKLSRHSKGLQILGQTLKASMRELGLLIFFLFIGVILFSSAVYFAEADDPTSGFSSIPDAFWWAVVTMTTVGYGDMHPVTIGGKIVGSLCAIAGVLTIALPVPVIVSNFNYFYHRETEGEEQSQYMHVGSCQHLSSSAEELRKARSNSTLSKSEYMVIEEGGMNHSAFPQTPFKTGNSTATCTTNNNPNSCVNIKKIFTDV

| Structure (SMILES) | IC50 |
| --- | --- |
| CCCC[C@H](NC(=O)[C@@H]1CCCN1)C(=O)N[C@@H](CCC(=O)O)C(=O)N[C@@H](CCCC)C(=O)N[C@@H](CCCNC(=N)N)C(=O)N[C@H]1CSSC[C@@H]2NC(=O)[C@H](CCCCN)NC(=O)CNC(=O)[C@H](Cc3ccccc3)NC(=O)[C@H]([C@@H](C)CC)NC(=O)[C@H](CO)NC(=O)CNC(=O)[C@H]([C@@H](C)CC)NC(=O)[C@H](C)NC(=O)[C@H](C)NC(=O)[C@H](CC(C)C)NC(=O)[C@@H]3CSSC[C@@H](C(=O)N[C@@H](Cc4ccc(O)cc4)C(=O)N4CCC[C@H]4C(=O)N[C@@H](CCCNC(=N)N)C(=O)O)NC(=O)[C@H](CCCCN)NC(=O)[C@H](CSSC[C@H](NC(=O)[C@H](CCC(=O)O)NC(=O)[C@H](C(C)C)NC(=O)[C@H](CO)NC(=O)[C@H](C)NC(=O)[C@H](CO)NC1=O)C(=O)N[C@@H](CCCCN)C(=O)N[C@@H](CCC(=O)O)C(=O)N[C@@H](CCCCN)C(=O)N3)NC(=O)[C@H](CCCCN)NC(=O)[C@H](CCCCN)NC(=O)[C@H](CC(N)=O)NC(=O)[C@H](CCCC)NC2=O [Compound 118] (H-P[Nle]E[Nle]RCSASVECKEKCLAAIGSIFGKC[Nle]NKKCKCYPR-OH; disulfide 6-27, 12-32, 16-34) | 1.39 nM |
| CC[C@H](C)[C@@H]1NC(=O)[C@H](C)NC(=O)[C@H](CCCCN)NC(=O)[C@H](CC(C)C)NC(=O)[C@@H]2CSSC[C@@H](C(=O)N[C@@H](Cc3ccc(O)cc3)C(=O)N3CCC[C@H]3C(=O)N[C@@H](CCCNC(=N)N)C(=O)O)NC(=O)[C@H](CCCCN)NC(=O)[C@@H]3CSSC[C@H](NC(=O)[C@H](CCC(=O)O)NC(=O)[C@H](C(C)C)NC(=O)[C@H](CO)NC(=O)[C@H](C)NC(=O)[C@H](CO)NC(=O)[C@@H](NC(=O)[C@H](CCCNC(=N)N)NC(=O)[C@H](CCSC)NC(=O)[C@@H](N)CC(=O)O)CSSC[C@H](NC(=O)[C@H](CCCCN)NC(=O)CNC(=O)[C@H](Cc4ccccc4)NC(=O)[C@H]([C@@H](C)CC)NC(=O)[C@H](CO)NC(=O)CNC1=O)C(=O)N[C@@H](CCSC)C(=O)N[C@@H](CC(N)=O)C(=O)N[C@@H](CCCCN)C(=O)N[C@@H](CCCCN)C(=O)N3)C(=O)N[C@@H](CCCCN)C(=O)N[C@@H](CCC(N)=O)C(=O)N[C@@H](CCCCN)C(=O)N2 [Compound 6] (H-DMRCSASVECKQKCLKAIGSIFGKCMNKKCKCYPR-OH; disulfide 4-25, 10-30, 14-32) | 0.34 nM |
| CCCC[C@H](NC(=O)[C@@H]1CCCN1)C(=O)N[C@@H](CCC(=O)O)C(=O)N[C@@H](CCCC)C(=O)N[C@@H](CCCNC(=N)N)C(=O)N[C@H]1CSSC[C@@H]2NC(=O)[C@H](CCCCN)NC(=O)CNC(=O)[C@H](Cc3ccccc3)NC(=O)[C@H]([C@@H](C)CC)NC(=O)[C@H](CO)NC(=O)CNC(=O)[C@H]([C@@H](C)CC)NC(=O)[C@H](C)NC(=O)[C@H](C)NC(=O)[C@H](CC(C)C)NC(=O)[C@@H]3CSSC[C@@H](C(=O)N[C@@H](Cc4ccc(O)cc4)C(=O)N4CCC[C@H]4C(=O)N[C@@H](CCCNC(=N)N)C(=O)N[C@@H](CCCCN)C(=O)N[C@@H](CO)C(=O)O)NC(=O)[C@H](CCCCN)NC(=O)[C@H](CSSC[C@H](NC(=O)[C@H](CCC(=O)O)NC(=O)[C@H](C(C)C)NC(=O)[C@H](CO)NC(=O)[C@H](C)NC(=O)[C@H](CO)NC1=O)C(=O)N[C@@H](CCCCN)C(=O)N[C@@H](CCC(N)=O)C(=O)N[C@@H](CCCCN)C(=O)N3)NC(=O)[C@H](CCCCN)NC(=O)[C@H](CCCCN)NC(=O)[C@H](CC(N)=O)NC(=O)[C@H](CCCC)NC2=O [Compound 127] (H-P[Nle]E[Nle]RCSASVECKQKCLAAIGSIFGKC[Nle]NKKCKCYPRKS-OH; disulfide 6-27, 12-32, 16-34) | 0.562 nM |
| CCCC[C@H](NC(=O)[C@@H]1CCCN1)C(=O)N[C@@H](CCC(=O)O)C(=O)N[C@@H](CCCC)C(=O)N[C@@H](CCCNC(=N)N)C(=O)N[C@H]1CSSC[C@@H]2NC(=O)[C@H](CCCCN)NC(=O)CNC(=O)[C@H](Cc3ccccc3)NC(=O)[C@H]([C@@H](C)CC)NC(=O)[C@H](CO)NC(=O)CNC(=O)[C@H]([C@@H](C)CC)NC(=O)[C@H](C)NC(=O)[C@H](C)NC(=O)[C@H](CC(C)C)NC(=O)[C@@H]3CSSC[C@@H](C(=O)N[C@@H](Cc4ccc(O)cc4)C(=O)N4CCC[C@H]4C(=O)N[C@@H](CCCNC(=N)N)C(=O)O)NC(=O)[C@H](CCCCN)NC(=O)[C@H](CSSC[C@H](NC(=O)[C@H](CCC(=O)O)NC(=O)[C@H](C(C)C)NC(=O)[C@H](CO)NC(=O)[C@H](C)NC(=O)[C@H](CO)NC1=O)C(=O)N[C@@H](CCCCN)C(=O)N[C@@H](CCC(N)=O)C(=O)N1CCC[C@H]1C(=O)N3)NC(=O)[C@H](CCCCN)NC(=O)[C@H](CCCCN)NC(=O)[C@H](CC(N)=O)NC(=O)[C@H](CCCC)NC2=O [Compound 141] (H-P[Nle]E[Nle]RCSASVECKQPCLAAIGSIFGKC[Nle]NKKCKCYPR-OH; disulfide 6-27, 12-32, 16-34) | 1.07 nM |
| CCCC[C@H](NC(=O)[C@H](CC(=O)O)NC(=O)[C@H](CCCC)NC(=O)[C@@H](N)CO)C(=O)N[C@@H](CCCNC(=N)N)C(=O)N[C@H]1CSSC[C@@H]2NC(=O)[C@H](CCCCN)NC(=O)CNC(=O)[C@H](Cc3ccccc3)NC(=O)[C@H]([C@@H](C)CC)NC(=O)[C@H](CO)NC(=O)CNC(=O)[C@H]([C@@H](C)CC)NC(=O)[C@H](C)NC(=O)[C@H](C)NC(=O)[C@H](CC(C)C)NC(=O)[C@@H]3CSSC[C@@H](C(=O)N[C@@H](Cc4ccc(O)cc4)C(=O)N4CCC[C@H]4C(=O)N[C@@H](CCCNC(=N)N)C(N)=O)NC(=O)[C@H](CCCCN)NC(=O)[C@H](CSSC[C@H](NC(=O)[C@H](CCC(=O)O)NC(=O)[C@H](C(C)C)NC(=O)[C@H](CO)NC(=O)[C@H](C)NC(=O)[C@H](CO)NC1=O)C(=O)N[C@@H](C)C(=O)N[C@@H](CCC(N)=O)C(=O)N[C@@H](CC(C)C)C(=O)N3)NC(=O)[C@H](CCCCN)NC(=O)[C@H](CCCCN)NC(=O)[C@H](CC(N)=O)NC(=O)[C@H](CCSC)NC2=O [Compound 81] (H-S[Nle]D[Nle]RCSASVECAQLCLAAIGSIFGKCMNKKCKCYPR-NH2; disulfide 6-27, 12-32, 16-34) | 0.22 nM |
| CCCC[C@H](NC(=O)[C@@H]1CCCN1)C(=O)N[C@@H](CCC(=O)O)C(=O)N[C@@H](CCCC)C(=O)N[C@@H](CCCNC(=N)N)C(=O)N[C@H]1CSSC[C@@H]2NC(=O)[C@H](CCCCN)NC(=O)CNC(=O)[C@H](Cc3ccccc3)NC(=O)[C@H]([C@@H](C)CC)NC(=O)[C@H](CO)NC(=O)CNC(=O)[C@H]([C@@H](C)CC)NC(=O)[C@H](C)NC(=O)[C@H](C)NC(=O)[C@H](CC(C)C)NC(=O)[C@@H]3CSSC[C@@H](C(=O)N[C@@H](Cc4ccc(O)cc4)C(=O)N4CCC[C@H]4C(=O)N[C@@H](CCCNC(=N)N)C(=O)N[C@@H](C)C(=O)N[C@@H](CCCCN)C(=O)O)NC(=O)[C@H](CCCCN)NC(=O)[C@H](CSSC[C@H](NC(=O)[C@H](CCC(=O)O)NC(=O)[C@H](C(C)C)NC(=O)[C@H](CO)NC(=O)[C@H](C)NC(=O)[C@H](CO)NC1=O)C(=O)N[C@@H](CCCCN)C(=O)N[C@@H](CCC(N)=O)C(=O)N[C@@H](CCCCN)C(=O)N3)NC(=O)[C@H](CCCCN)NC(=O)[C@H](CCCCN)NC(=O)[C@H](CC(N)=O)NC(=O)[C@H](CCCC)NC2=O [Compound 130] (H-P[Nle]E[Nle]RCSASVECKQKCLAAIGSIFGKC[Nle]NKKCKCYPRAK-OH; disulfide 6-27, 12-32, 16-34) | 0.529 nM |
| CCCC[C@H](NC(=O)[C@H](CC(=O)O)NC(=O)[C@H](CCCC)NC(=O)[C@@H](N)CO)C(=O)N[C@@H](CCCNC(=N)N)C(=O)N[C@H]1CSSC[C@@H]2NC(=O)[C@H](CCCCN)NC(=O)CNC(=O)[C@H](Cc3ccccc3)NC(=O)[C@H]([C@@H](C)CC)NC(=O)[C@H](CO)NC(=O)CNC(=O)[C@H]([C@@H](C)CC)NC(=O)[C@H](C)NC(=O)[C@H](CCCCN)NC(=O)[C@H](CC(C)C)NC(=O)[C@@H]3CSSC[C@@H](C(=O)N[C@@H](Cc4ccc(O)cc4)C(=O)N4CCC[C@H]4C(=O)N[C@@H](CCCNC(=N)N)C(N)=O)NC(=O)[C@H](CCCCN)NC(=O)[C@H](CSSC[C@H](NC(=O)[C@H](CCC(=O)O)NC(=O)[C@H](C(C)C)NC(=O)[C@H](CC(C)C)NC(=O)[C@H](C)NC(=O)[C@H](CO)NC1=O)C(=O)N[C@@H](CCCCN)C(=O)N[C@@H](CCC(N)=O)C(=O)N[C@@H](CCCCN)C(=O)N3)NC(=O)[C@H](CCCCN)NC(=O)[C@H](CCCCN)NC(=O)[C@H](CC(N)=O)NC(=O)[C@H](CCSC)NC2=O [Compound 89] (H-S[Nle]D[Nle]RCSALVECKQKCLKAIGSIFGKCMNKKCKCYPR-NH2; disulfide 6-27, 12-32, 16-34) | 2.7 nM |
| CCCC[C@H](NC(=O)[C@@H]1CCCN1)C(=O)N[C@@H](CCC(=O)O)C(=O)N[C@@H](CCCC)C(=O)N[C@@H](CCCNC(=N)N)C(=O)N[C@H]1CSSC[C@@H]2NC(=O)[C@H](CCCCN)NC(=O)CNC(=O)[C@H](Cc3ccccc3)NC(=O)[C@H]([C@@H](C)CC)NC(=O)[C@H](CO)NC(=O)CNC(=O)[C@H]([C@@H](C)CC)NC(=O)[C@H](C)NC(=O)[C@H](C)NC(=O)[C@H](CC(C)C)NC(=O)[C@@H]3CSSC[C@@H](C(=O)N[C@@H](Cc4ccc(O)cc4)C(=O)N4CCC[C@H]4C(=O)N[C@@H](CCCNC(=N)N)C(=O)O)NC(=O)[C@H](CCCCN)NC(=O)[C@H](CSSC[C@H](NC(=O)[C@H](CCC(=O)O)NC(=O)[C@H](C(C)C)NC(=O)[C@H](CO)NC(=O)[C@H](C)NC(=O)[C@H](CCC(=O)O)NC1=O)C(=O)N[C@@H](CCCCN)C(=O)N[C@@H](CCC(N)=O)C(=O)N[C@@H](CCCCN)C(=O)N3)NC(=O)[C@H](CCCCN)NC(=O)[C@H](CCCCN)NC(=O)[C@H](CC(N)=O)NC(=O)[C@H](CCCC)NC2=O [Compound 142] (H-P[Nle]E[Nle]RCEASVECKQKCLAAIGSIFGKC[Nle]NKKCKCYPR-OH; disulfide 6-27, 12-32, 16-34) | 1.5 nM |
